# Reference: PubChem BioAssay AID2060513 (Molecular Pharmacology Branch, DTP, NCI, 2025)
# Tested on: 299254-011-R-J1-PDC complex spheroids viability
# Assay: Anticancer human tumor 299254-011-R-J1-PDC patient-derived melanoma cell line growth inhibition [GQUAD]
# Settings: for IC50: curve of first compound; for viability, T/C: stronger effect = lower value
# Description: DNA G-quadruplex Stabilizer Agents in Combinations in Complex Spheroids
# A high-throughput screen of multi-cell type tumor spheroids was designed to identify active combinations of DNA G-quadruplex stabilizer agents and targeted small molecules. Complex spheroids include a stromal component modeled by human endothelial cells (HUVEC) and fibroblasts modeled by human mesenchymal stem cells (MSCs). The concentration ranges selected for each drug and investigational agent were based upon clinically achievable concentrations if the clinical Cmax of the agent was known.
# Compounds. The drugs and investigational agents: pidnarulex (CX-5461; NSC782164), APTO-253 (NSC789042), BRACO-19 (NSC847499), peposertib (NSC802822), ceralasertib (NSC780249), elimusertib (NSC800525), camonsertib (NSC841442), AZD-1390 (NSC803789), olaparib (NSC753686), talazoparib (NSC767125), ART-558 (NSC835418), sotorasib (NSC818433), MRTX-1133 (NSC836407), SN-38 (NSC673596), topotecan (NSC609699), etoposide (NSC141540), doxorubicin (NSC123127), gemcitabine (NSC613327), 5-fluorouracil (NSC19893), paclitaxel (NSC125973), vemurafenib (NSC761431), panobinostat (NSC761190), R-306465 (JNJ-16241199; NSC773264), adavosertib (NSC754352), TP-3654 (NSC805149), carboplatin (NSC241240), KSQ-4279 (NSC840948), and staurosporine (NSC755774) were obtained from the National Cancer Institute (NCI) Developmental Therapeutics Program Chemical Repository (34). The FDA-approved anticancer drug set is available from the NCI Developmental Therapeutics Program. […] The stock solutions were prepared in dimethyl sulfoxide (DMSO, Sigma-Aldrich, St. Louis, MO, cat. D2650) at 800-fold the tested concentration and stored at -70 degrees C prior to their use. All drugs and investigational agents were tested over a range starting from a high concentration at or near the clinical Cmax and decreasing in half-log increments. If the clinical Cmax for an agent had not been determined, the highest concentration tested was 10 microM.
# 2.3 Cell Culture. All cells were maintained in an incubator at 37 degrees C and 5% CO2 with 95% humidity. The PDC lines were cultured according to standard operating procedures established by the NCI PDMR. All PDCs were thawed and cultured in Matrigel-coated flasks prepared with a working solution of 1X Ham's F-12 nutrient mix, without supplementation (Invitrogen, cat. 11765054), 100 U/mL penicillin-streptomycin (Invitrogen, cat. 15140122), and 2.5% Matrigel (Corning Inc., cat. 354248) for the first three passages. The 857933-349-R-J2-PDC line was cultured in 6C/Colon 1B media, which includes advanced DMEM/F-12 (Thermo Fisher Scientific, cat. 12634028), 10 mM HEPES (Thermo Fisher Scientific, cat. 15630080), 1X GlutaMAX supplement (Thermo Fisher Scientific, cat. 35050061), 0.1 mg/mL primocin (InvivoGen, cat. ant-pm-2), 10% defined fetal bovine serum, heat inactivated (HyClone Laboratories Inc., cat. SH30070.03HI), 50% L-WRN conditioned media (ATCC, cat. CRL-3276), 1.25 mM N-Acetyl-L-cysteine (Sigma-Aldrich, cat. A9165), 10 mM nicotinamide (Sigma-Aldrich, cat. N0636), 1X B-27 supplement (Thermo Fisher Scientific, cat. 17504044), 1X N-2 supplement (Thermo Fisher Scientific, cat. 17502048), 10 microM Y-27632 dihydrochloride (Tocris Bioscience, cat. 1254), and 50 ng/mL human EGF recombinant protein (Thermo Fisher Scientific, cat. PHG0311). The 485176-168-R4-J1-PDC line was cultured in Panc media, which includes all 6C/Colon 1B media components plus 100 ng/mL human FGF-10 (Thermo Fisher Scientific, cat. 100-26), 500 nM SB-431542 (Selleckchem, cat. S1067), and gastrin (Tocris, cat. 3006).
# […]
# [1] = second compound 0.0316 µM, first compound 0.0316 µM
# [2] = second compound 0.0316 µM, first compound 0.1 µM
# [3] = second compound 0.0316 µM, first compound 0.316 µM
# [4] = second compound 0.0316 µM, first compound 1 µM
# [5] = second compound 0.0316 µM, first compound 3.16 µM
# [6] = second compound 0.0316 µM, first compound 10 µM
# [7] = second compound 0.1 µM, first compound 0.0316 µM
# [8] = second compound 0.1 µM, first compound 0.1 µM
# [9] = second compound 0.1 µM, first compound 0.316 µM
# [10] = second compound 0.1 µM, first compound 1 µM
# [11] = second compound 0.1 µM, first compound 3.16 µM
# [12] = second compound 0.1 µM, first compound 10 µM
# [13] = second compound 0.316 µM, first compound 0.0316 µM
# [14] = second compound 0.316 µM, first compound 0.1 µM
# [15] = second compound 0.316 µM, first compound 0.316 µM
# [16] = second compound 0.316 µM, first compound 1 µM
# [17] = second compound 0.316 µM, first compound 3.16 µM
# [18] = second compound 0.316 µM, first compound 10 µM
# [19] = second compound 1 µM, first compound 0.0316 µM
# [20] = second compound 1 µM, first compound 0.1 µM
# [21] = second compound 1 µM, first compound 0.316 µM
# [22] = second compound 1 µM, first compound 1 µM
# [23] = second compound 1 µM, first compound 3.16 µM
# [24] = second compound 1 µM, first compound 10 µM
# [25] = second compound 3.16 µM, first compound 0.0316 µM
# [26] = second compound 3.16 µM, first compound 0.1 µM
# [27] = second compound 3.16 µM, first compound 0.316 µM
# [28] = second compound 3.16 µM, first compound 1 µM
# [29] = second compound 3.16 µM, first compound 3.16 µM
# [30] = second compound 3.16 µM, first compound 10 µM
# [31] = second compound 10 µM, first compound 0.0316 µM
# [32] = second compound 10 µM, first compound 0.1 µM
# [33] = second compound 10 µM, first compound 0.316 µM
# [34] = second compound 10 µM, first compound 1 µM
# [35] = second compound 10 µM, first compound 3.16 µM
# [36] = second compound 10 µM, first compound 10 µM
# 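Note: spheroids exposed to the agents for seven days before readout.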
# 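Throughout, for viability, T/C: percent viability relative to DMSO vehicle control wells = 100%.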
compound,measurement,setting,value
C#Cc1c(F)ccc2cc(O)cc(-c3ncc4c(N5CC6CCC(C5)N6)nc(OCC56CCCN5CC(F)C6)nc4c3F)c12 (stereo unspecified) + CN(C)c1ccc(Nc2c3ccc(NC(=O)CCN4CCCC4)cc3nc3cc(NC(=O)CCN4CCCC4)ccc23)cc1,IC50,second compound 0.0316 µM,> 10 µM
same,IC50,second compound 0.1 µM,> 10 µM
same,IC50,second compound 0.316 µM,> 10 µM
same,IC50,second compound 1 µM,> 10 µM
same,IC50,second compound 3.16 µM,> 10 µM
same,IC50,second compound 10 µM,> 10 µM
same,"viability, T/C",[1],85.8%
same,"viability, T/C",[2],92.7%
same,"viability, T/C",[3],101%
same,"viability, T/C",[4],105%
same,"viability, T/C",[5],104%
same,"viability, T/C",[6],78.9%
same,"viability, T/C",[7],114%
same,"viability, T/C",[8],96.4%
same,"viability, T/C",[9],94.8%
same,"viability, T/C",[10],101%
same,"viability, T/C",[11],85.2%
same,"viability, T/C",[12],66%
same,"viability, T/C",[13],113%
same,"viability, T/C",[14],114%
same,"viability, T/C",[15],82.2%
same,"viability, T/C",[16],79.3%
same,"viability, T/C",[17],93.5%
same,"viability, T/C",[18],77%
same,"viability, T/C",[19],85.4%
same,"viability, T/C",[20],105%
same,"viability, T/C",[21],76.7%
same,"viability, T/C",[22],99.7%
same,"viability, T/C",[23],89.2%
same,"viability, T/C",[24],83.9%
same,"viability, T/C",[25],110%
same,"viability, T/C",[26],123%
same,"viability, T/C",[27],97.3%
same,"viability, T/C",[28],112%
same,"viability, T/C",[29],73.6%
same,"viability, T/C",[30],69.9%
same,"viability, T/C",[31],100%
same,"viability, T/C",[32],94.8%
same,"viability, T/C",[33],101%
same,"viability, T/C",[34],87.8%
same,"viability, T/C",[35],85.4%
same,"viability, T/C",[36],72.5%
CC1COCCN1c1cc(C2(S(C)(=N)=O)CC2)nc(-c2ccnc3[nH]ccc23)n1 (stereo unspecified) + CN(C)c1ccc(Nc2c3ccc(NC(=O)CCN4CCCC4)cc3nc3cc(NC(=O)CCN4CCCC4)ccc23)cc1,IC50,second compound 0.0316 µM,6.24 µM
same,IC50,second compound 0.1 µM,3.93 µM
same,IC50,second compound 0.316 µM,5.06 µM
same,IC50,second compound 1 µM,4.48 µM
same,IC50,second compound 3.16 µM,3.63 µM
same,IC50,second compound 10 µM,2.91 µM
same,"viability, T/C",[1],99.6%
same,"viability, T/C",[2],106%
same,"viability, T/C",[3],98%
same,"viability, T/C",[4],93.1%
same,"viability, T/C",[5],75.6%
same,"viability, T/C",[6],32.2%
same,"viability, T/C",[7],116%
same,"viability, T/C",[8],128%
same,"viability, T/C",[9],101%
same,"viability, T/C",[10],77.5%
same,"viability, T/C",[11],59.7%
same,"viability, T/C",[12],27.9%
same,"viability, T/C",[13],105%
same,"viability, T/C",[14],98.2%
same,"viability, T/C",[15],131%
same,"viability, T/C",[16],82.4%
same,"viability, T/C",[17],71.4%
same,"viability, T/C",[18],23.5%
same,"viability, T/C",[19],114%
same,"viability, T/C",[20],95.3%
same,"viability, T/C",[21],85%
same,"viability, T/C",[22],78%
same,"viability, T/C",[23],65.5%
same,"viability, T/C",[24],27.9%
same,"viability, T/C",[25],125%
same,"viability, T/C",[26],100%
same,"viability, T/C",[27],87.3%
same,"viability, T/C",[28],80.4%
same,"viability, T/C",[29],53.2%
same,"viability, T/C",[30],28.3%
same,"viability, T/C",[31],105%
same,"viability, T/C",[32],117%
same,"viability, T/C",[33],101%
same,"viability, T/C",[34],98%
same,"viability, T/C",[35],46.1%
same,"viability, T/C",[36],32%
CC[C@@]1(O)C(=O)OCc2c1cc1n(c2=O)Cc2cc3c(CN(C)C)c(O)ccc3nc2-1 + CN(C)c1ccc(Nc2c3ccc(NC(=O)CCN4CCCC4)cc3nc3cc(NC(=O)CCN4CCCC4)ccc23)cc1,IC50,second compound 0.0316 µM,> 0.316 µM
same,IC50,second compound 0.1 µM,> 0.316 µM
same,IC50,second compound 0.316 µM,> 0.316 µM
same,IC50,second compound 1 µM,> 0.316 µM
same,IC50,second compound 3.16 µM,> 0.316 µM
same,IC50,second compound 10 µM,> 0.316 µM
same,"viability, T/C","second compound 0.0316 µM, first compound 0.000999 µM",99.2%
same,"viability, T/C","second compound 0.0316 µM, first compound 0.00316 µM",105%
same,"viability, T/C","second compound 0.0316 µM, first compound 0.00999 µM",126%
same,"viability, T/C",[1],107%
same,"viability, T/C","second compound 0.0316 µM, first compound 0.0999 µM",112%
same,"viability, T/C",[3],90.4%
same,"viability, T/C","second compound 0.1 µM, first compound 0.000999 µM",120%
same,"viability, T/C","second compound 0.1 µM, first compound 0.00316 µM",93.2%
same,"viability, T/C","second compound 0.1 µM, first compound 0.00999 µM",98.7%
same,"viability, T/C",[7],101%
same,"viability, T/C","second compound 0.1 µM, first compound 0.0999 µM",84.5%
same,"viability, T/C",[9],90.1%
same,"viability, T/C","second compound 0.316 µM, first compound 0.000999 µM",108%
same,"viability, T/C","second compound 0.316 µM, first compound 0.00316 µM",120%
same,"viability, T/C","second compound 0.316 µM, first compound 0.00999 µM",108%
same,"viability, T/C",[13],90.1%
same,"viability, T/C","second compound 0.316 µM, first compound 0.0999 µM",85.8%
same,"viability, T/C",[15],101%
same,"viability, T/C","second compound 1 µM, first compound 0.000999 µM",106%
same,"viability, T/C","second compound 1 µM, first compound 0.00316 µM",105%
same,"viability, T/C","second compound 1 µM, first compound 0.00999 µM",115%
same,"viability, T/C",[19],114%
same,"viability, T/C","second compound 1 µM, first compound 0.0999 µM",97.6%
same,"viability, T/C",[21],81.8%
same,"viability, T/C","second compound 3.16 µM, first compound 0.000999 µM",103%
same,"viability, T/C","second compound 3.16 µM, first compound 0.00316 µM",97%
same,"viability, T/C","second compound 3.16 µM, first compound 0.00999 µM",122%
same,"viability, T/C",[25],125%
same,"viability, T/C","second compound 3.16 µM, first compound 0.0999 µM",124%
same,"viability, T/C",[27],95.9%
same,"viability, T/C","second compound 10 µM, first compound 0.000999 µM",112%
same,"viability, T/C","second compound 10 µM, first compound 0.00316 µM",89.3%
same,"viability, T/C","second compound 10 µM, first compound 0.00999 µM",110%
same,"viability, T/C",[31],97.1%
same,"viability, T/C","second compound 10 µM, first compound 0.0999 µM",91.6%
same,"viability, T/C",[33],90.1%
